According to ChEMBL document CHEMBL1201862, “PubChem BioAssay data set” (2004):
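Briefly, cells in 96-well plates were exposed to five compound concentrations for 48 h, and endpoints were estimated by linear interpolation. GI50: concentration for 50% inhibition of growth.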 Calls of active or inactive are those of the source. Cut-off read from the data, not from the text of the source: active = GI50 up to about 1.1 µM and inactive = higher.

Key:
Assay in all cases: DTP human tumour cell line panel, 48 h
CCRF-CEM = tested on: CCRF-CEM
A498 = tested on: A498
LXFL 529 = tested on: LXFL 529
KM12 = tested on: KM12
SNB-75 = tested on: SNB-75
SK-MEL-2 = tested on: SK-MEL-2
Malme-3M = tested on: Malme-3M
UO-31 = tested on: UO-31
SF-539 = tested on: SF-539
MDA-MB-435 = tested on: MDA-MB-435
786-0 = tested on: 786-0
MCF7 = tested on: MCF7
OVCAR-3 = tested on: OVCAR-3
SF-295 = tested on: SF-295
HCC 2998 = tested on: HCC 2998
SN12C = tested on: SN12C
HOP-92 = tested on: HOP-92
RXF 393 = tested on: RXF 393
HCT-116 = tested on: HCT-116
SNB-19 = tested on: SNB-19

SMILES | GI50 (CCRF-CEM) | GI50 (A498) | GI50 (LXFL 529) | GI50 (KM12) | GI50 (SNB-75) | GI50 (SK-MEL-2) | GI50 (Malme-3M) | GI50 (UO-31) | GI50 (SF-539) | GI50 (MDA-MB-435) | GI50 (786-0) | GI50 (MCF7) | GI50 (OVCAR-3) | GI50 (SF-295) | GI50 (HCC 2998) | GI50 (SN12C) | GI50 (HOP-92) | GI50 (RXF 393) | GI50 (HCT-116) | GI50 (SNB-19)
N=C1OC(c2cccc(Cl)c2)C(NNS(=O)(=O)c2ccccc2)=C1O (stereo not given) | 2.32 µM (inactive) | > 100 µM (inactive) | 16.8 µM (inactive) | 47.8 µM (inactive) | 26.9 µM (inactive) | 24.9 µM (inactive) | 22.4 µM (inactive) | 26.6 µM (inactive) | 33.4 µM (inactive) | 33 µM (inactive) | 24.8 µM (inactive) | 22.4 µM (inactive) | 23.1 µM (inactive) | 57 µM (inactive) | 36.4 µM (inactive) | 44.7 µM (inactive) | 23.6 µM (inactive) | 15.7 µM (inactive) | 21.3 µM (inactive) | 55.5 µM (inactive)
O=C1c2cccc3cc([N+](=O)[O-])cc(c23)C(=O)N1NC1=NCCN1 | > 100 µM (inactive) | > 100 µM (inactive) | > 100 µM (inactive) | > 100 µM (inactive) | > 100 µM (inactive) | > 100 µM (inactive) | > 100 µM (inactive) | > 100 µM (inactive) | > 100 µM (inactive) |  | > 100 µM (inactive) |  | > 100 µM (inactive) | > 100 µM (inactive) | > 100 µM (inactive) | > 100 µM (inactive) | > 100 µM (inactive) | > 100 µM (inactive) | > 100 µM (inactive) | > 100 µM (inactive)
ON=C1CCC(c2ccccc2)CC1 (stereo not given) | > 100 µM (inactive) | > 100 µM (inactive) | > 100 µM (inactive) | > 100 µM (inactive) | > 100 µM (inactive) | > 100 µM (inactive) | > 100 µM (inactive) | > 100 µM (inactive) | > 100 µM (inactive) |  | > 100 µM (inactive) |  | > 100 µM (inactive) | > 100 µM (inactive) | > 100 µM (inactive) | > 100 µM (inactive) | > 100 µM (inactive) | > 100 µM (inactive) | > 100 µM (inactive) | > 100 µM (inactive)
COc1cc(C2c3cc4c(cc3[C@@H](Nc3ccc(N)cc3)C3COC(=O)[C@H]23)OCO4)cc(OC)c1O (stereo not given in full) | 0.222 µM (active) | 1.18 µM (inactive) | 8.59 µM (inactive) | 3.43 µM (inactive) | 1.94 µM (inactive) | 5.73 µM (inactive) | 2.13 µM (inactive) | 1.34 µM (inactive) | 1.07 µM (active) | 10.8 µM (inactive) | 0.908 µM (active) | 0.0451 µM (active) | 6.1 µM (inactive) | 0.403 µM (active) | 3.27 µM (inactive) | 0.711 µM (active) | 0.948 µM (active) | 3.91 µM (inactive) | 2.7 µM (inactive) | 0.805 µM (active)
C=CCOCCCCC(C(C)=O)C(=O)OC (stereo not given) | > 100 µM (inactive) | > 100 µM (inactive) | > 100 µM (inactive) | > 100 µM (inactive) | > 100 µM (inactive) | > 100 µM (inactive) | > 100 µM (inactive) | > 100 µM (inactive) | > 100 µM (inactive) |  | > 100 µM (inactive) |  | > 100 µM (inactive) | > 100 µM (inactive) | > 100 µM (inactive) | > 100 µM (inactive) | 54.8 µM (inactive) | > 100 µM (inactive) | > 100 µM (inactive) | > 100 µM (inactive)
CC(=O)OC1CC[C@@]2(C)C(CC[C@]3(C)C2CC=C2[C@@H]4CC(C)(C)CCC4(C)CCC23C)[C@@]1(C)C(=O)O (stereo not given in full) | 23.4 µM (inactive) | 19.2 µM (inactive) | 13.3 µM (inactive) | 12 µM (inactive) | 23 µM (inactive) | 15.7 µM (inactive) | 21.4 µM (inactive) | 16 µM (inactive) | 19.9 µM (inactive) | 15.2 µM (inactive) | 17.6 µM (inactive) | 14.9 µM (inactive) | 15.1 µM (inactive) | 17.9 µM (inactive) | 14.5 µM (inactive) | 16.4 µM (inactive) | 20.4 µM (inactive) | 16.6 µM (inactive) | 13.2 µM (inactive) | 18.9 µM (inactive)
C(=C\c1ccc2ccccc2c1Nc1ccccc1)/c1ccccc1 | 11.9 µM (inactive) | 18.3 µM (inactive) | > 73.1 µM (inactive) | 51.3 µM (inactive) | 15.7 µM (inactive) | > 60.5 µM (inactive) | 33.2 µM (inactive) | 29.8 µM (inactive) | 32.2 µM (inactive) |  | 17 µM (inactive) |  | 22.4 µM (inactive) | 41.9 µM (inactive) | > 70.5 µM (inactive) | 33.6 µM (inactive) | 18.2 µM (inactive) | 8.22 µM (inactive) | 17.8 µM (inactive) | 28 µM (inactive)
CC(C)C(=O)Nc1nc2[nH]cnc2c(=O)[nH]1 | > 100 µM (inactive) | > 100 µM (inactive) | > 100 µM (inactive) | > 100 µM (inactive) | > 100 µM (inactive) | > 100 µM (inactive) | > 100 µM (inactive) | > 100 µM (inactive) | > 100 µM (inactive) |  | > 100 µM (inactive) |  | > 100 µM (inactive) | > 100 µM (inactive) | > 100 µM (inactive) | > 100 µM (inactive) | > 100 µM (inactive) | > 100 µM (inactive) | > 100 µM (inactive) | > 100 µM (inactive)
